Experimental data from ChEMBL document CHEMBL1201862, “PubChem BioAssay data set” (2004).
Active and inactive are the calls of the source.

What was measured:
Protein skinhead-1 = target: T1, Protein skinhead-1 (Caenorhabditis elegans, UniProt P34707); format: functional
T1 sequence (P34707 whole entry): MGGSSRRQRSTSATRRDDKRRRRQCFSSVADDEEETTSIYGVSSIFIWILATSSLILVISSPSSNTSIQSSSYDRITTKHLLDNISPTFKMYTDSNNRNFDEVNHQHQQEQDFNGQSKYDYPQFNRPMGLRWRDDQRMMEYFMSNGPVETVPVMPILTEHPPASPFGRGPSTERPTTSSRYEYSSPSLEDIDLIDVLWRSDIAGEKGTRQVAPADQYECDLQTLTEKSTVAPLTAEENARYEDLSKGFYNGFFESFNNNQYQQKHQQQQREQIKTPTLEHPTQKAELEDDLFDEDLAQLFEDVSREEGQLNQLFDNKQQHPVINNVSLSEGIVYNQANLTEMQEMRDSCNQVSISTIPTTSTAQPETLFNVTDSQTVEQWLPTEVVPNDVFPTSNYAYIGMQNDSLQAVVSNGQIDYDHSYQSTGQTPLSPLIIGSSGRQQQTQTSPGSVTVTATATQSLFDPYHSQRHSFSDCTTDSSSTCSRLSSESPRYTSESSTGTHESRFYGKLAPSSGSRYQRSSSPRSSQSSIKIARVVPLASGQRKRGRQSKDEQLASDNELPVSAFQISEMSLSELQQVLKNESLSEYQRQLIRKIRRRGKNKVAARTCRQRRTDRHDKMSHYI

[1] = target: T2, Oxysterols receptor LXR-beta (Homo sapiens, UniProt P55055); format: functional, cell-based;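 note: Cell-based luminescence dose-response assay of agonist activity at LXR, run as a confirmatory counterscreen to a daf-12 agonist screen; HEK293 cells with Gal4-LXR fusion and GAL4-driven luciferase reporter; agonist potency from rising luciferase signal of a Gal4-LXR reporter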
T2 sequence (P55055 whole entry): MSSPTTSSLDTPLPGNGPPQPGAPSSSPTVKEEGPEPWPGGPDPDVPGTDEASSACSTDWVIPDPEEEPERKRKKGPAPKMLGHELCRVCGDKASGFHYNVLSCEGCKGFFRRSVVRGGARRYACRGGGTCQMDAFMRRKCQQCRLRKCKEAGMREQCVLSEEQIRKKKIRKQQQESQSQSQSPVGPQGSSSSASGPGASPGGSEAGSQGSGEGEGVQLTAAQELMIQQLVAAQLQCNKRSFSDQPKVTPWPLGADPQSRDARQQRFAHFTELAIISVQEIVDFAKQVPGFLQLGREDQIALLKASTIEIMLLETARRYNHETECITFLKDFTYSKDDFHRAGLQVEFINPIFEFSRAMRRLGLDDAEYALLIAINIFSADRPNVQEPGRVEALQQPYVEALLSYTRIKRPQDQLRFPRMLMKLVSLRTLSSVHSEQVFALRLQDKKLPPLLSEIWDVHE

CHO-K1 = experiment: (§1) Counterscreen for antagonists of the orexin 1 receptor (OX1R; HCRTR1): Homogeneous time resolved fluorescence (HTRF)-based cell-based dose response assay to identify antagonists of the parental CHO-K1 cell line. [Related pubchem assays (depositor defined):AID434989, AID435008, AID463079, AID485270, AID492963, AID492964, AID492965, AID493232, AID504699, AID504701]; format: functional; conditions: Cricetulus griseus
[2] = as §1, with “Fluorescence-based” for “Homogeneous time resolved fluorescence (HTRF)-based”, “cell-based high throughput” for “cell-based”, “CHO” for “CHO-K1”; format: functional
[3] = blockers of bursicon-stimulated LGR2 cAMP reporter – cell-based, HEK293, CRE-luciferase reporter, cherry pick, set 2, dose response (AID 743343); format: functional;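 note: transfected cells were stimulated with diluted bursicon conditioned medium after compound addition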
[4] = A Cell Based Secondary Assay To Explore Cytotoxicity of Compounds that Sensitize Mycobacterium Tuberculosis to Beta-Lactam Antibiotics.; format: functional
[5] = target: Luciferin 4-monooxygenase (Photinus pyralis, UniProt P08659); experiment: inhibition of purified Photinus pyralis luciferase – biochemical, luminescence, dose response (AID 1891)
BJ [6] = experiment: BJ-TERT fibroblast viability loss – cell-based, RAS-independent, luminescence, dose response (AID 1933); format: functional; conditions: Homo sapiens
[7] = Luminescence Cell-Based Dose Confirmation HTS to Identify Inhibitors of Platelet Dense Granule Release. [Related pubchem assays: 1663 (Primary HTS), 1678 (Summary of Project)]; format: functional
[8] = toxicity toward HepG2 liver cells – cell-based, plate reader, cherry-pick, antagonist series, cytotoxicity control, dose response (AID 743416); format: functional
[9] = target: T3, Orexin/Hypocretin receptor type 1 (Homo sapiens, UniProt O43613); experiment: (§2) Fluorescence-based cell-based high throughput dose response assay for antagonists of the orexin 1 receptor (OX1R; HCRTR1). [Related pubchem assays (depositor defined):AID434989, AID435008, AID463079, AID485270, AID492963, AID492964, AID492965, AID493232, AID504717, AID504718]; format: functional
T3 sequence (O43613 whole entry): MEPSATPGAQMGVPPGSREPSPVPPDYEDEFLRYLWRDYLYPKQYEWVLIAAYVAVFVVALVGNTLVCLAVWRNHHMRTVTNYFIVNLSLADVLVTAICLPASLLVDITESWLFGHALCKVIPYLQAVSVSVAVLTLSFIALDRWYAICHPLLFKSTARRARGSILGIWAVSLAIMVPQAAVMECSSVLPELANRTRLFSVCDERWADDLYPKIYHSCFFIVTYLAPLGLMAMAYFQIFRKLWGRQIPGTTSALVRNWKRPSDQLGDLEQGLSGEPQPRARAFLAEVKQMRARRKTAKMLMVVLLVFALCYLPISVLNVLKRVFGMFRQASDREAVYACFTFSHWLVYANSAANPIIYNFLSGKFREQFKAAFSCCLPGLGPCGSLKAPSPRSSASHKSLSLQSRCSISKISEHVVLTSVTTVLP

BJ [10] = experiment: growth inhibition of engineered Ras-driven BJ cells – cell-based, alamar blue fluorescence, cherrypicked samples, dose response (AID 2631); format: functional; conditions: Homo sapiens;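 note: confirmatory dose-response assay in RAS-dependent BJ fibroblasts engineered with TERT, LT and ST, with cytotoxicity read by fluorescence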
Orexin receptor type 2 [11] = target: T4, Orexin receptor type 2 (Homo sapiens, UniProt O43614); experiment: Counterscreen assay for antagonists of the orexin 1 receptor (OX1R; HCRTR1): Fluorescence-based cell-based dose response assay for antagonists of the orexin 2 receptor (OX2R; HCRTR2), run by assay provider.; format: functional
T4 sequence (O43614 whole entry): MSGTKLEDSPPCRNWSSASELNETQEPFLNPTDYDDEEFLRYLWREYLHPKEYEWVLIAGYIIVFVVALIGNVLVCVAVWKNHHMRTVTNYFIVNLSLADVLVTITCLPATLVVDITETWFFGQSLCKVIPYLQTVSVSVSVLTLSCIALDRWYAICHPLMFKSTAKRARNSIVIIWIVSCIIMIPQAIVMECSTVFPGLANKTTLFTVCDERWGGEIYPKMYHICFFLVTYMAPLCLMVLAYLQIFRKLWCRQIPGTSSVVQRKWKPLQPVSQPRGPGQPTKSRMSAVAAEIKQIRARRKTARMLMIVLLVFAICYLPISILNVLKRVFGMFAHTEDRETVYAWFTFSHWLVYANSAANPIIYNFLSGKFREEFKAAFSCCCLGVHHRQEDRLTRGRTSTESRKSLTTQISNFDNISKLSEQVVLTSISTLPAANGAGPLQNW

[12] = blockade of melanocortin 4 receptor signaling – cell-based, plate reader, cherry pick, counter-screen for LGR2 antagonist project, dose response (AID 743444); format: functional;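 note: transfected HEK 293 cells stimulated with alpha-MSH peptide; potency of inhibitors of the alpha-MSH evoked signal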
Orexin receptor type 2 [13] = target: T4, Orexin receptor type 2; experiment: Counterscreen assay for antagonists of the orexin 1 receptor (OX1R; HCRTR1): Homogeneous Time Resolved Fluorescence (HTRF)-based cell-based dose response assay for antagonists of the orexin 2 receptor (OX2R; HCRTR2), run by assay provider.; format: functional
BJ [14] = experiment: cells; format: functional, cell-based; conditions: Homo sapiens
[15] = target: T3, Orexin/Hypocretin receptor type 1; experiment: as §2, with “Homogeneous Time Resolved Fluorescence (HTRF)-based” for “Fluorescence-based”; format: functional
[16] = viability loss in HEK293 cells – cell-based, plate reader, cherry-picked samples, cytotoxicity control, dose response (AID 743446); format: functional
[17] = A549 cell cytotoxicity, dose response, cytotoxicity control, plate reader, cherry-pick, antagonist series (AID 743412); format: functional, cell-based
BJ [18] = experiment: BJ-TERT-LT-ST fibroblast viability loss – cell-based, RAS-independent, luminescence, dose response (AID 1935); format: functional; conditions: Homo sapiens;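 note: BJ fibroblasts immortalized with TERT plus LT and ST oncogenes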
[19] = DRD fibroblast viability loss – cell-based, non-viral oncogenic, luminescence, dose response (AID 1934); format: functional; conditions: Homo sapiens
Aminopeptidase N = target: T5, Aminopeptidase N (Plasmodium falciparum FcB1/Columbia, UniProt O96935); experiment: malaria alanyl aminopeptidase activity blockers – biochemical, fluorogenic H-Leu-NHMec substrate, 1536-well (AID 1445); set-up: species or system Plasmodium falciparum 3D7, 3D7
T5 sequence (O96935 whole entry): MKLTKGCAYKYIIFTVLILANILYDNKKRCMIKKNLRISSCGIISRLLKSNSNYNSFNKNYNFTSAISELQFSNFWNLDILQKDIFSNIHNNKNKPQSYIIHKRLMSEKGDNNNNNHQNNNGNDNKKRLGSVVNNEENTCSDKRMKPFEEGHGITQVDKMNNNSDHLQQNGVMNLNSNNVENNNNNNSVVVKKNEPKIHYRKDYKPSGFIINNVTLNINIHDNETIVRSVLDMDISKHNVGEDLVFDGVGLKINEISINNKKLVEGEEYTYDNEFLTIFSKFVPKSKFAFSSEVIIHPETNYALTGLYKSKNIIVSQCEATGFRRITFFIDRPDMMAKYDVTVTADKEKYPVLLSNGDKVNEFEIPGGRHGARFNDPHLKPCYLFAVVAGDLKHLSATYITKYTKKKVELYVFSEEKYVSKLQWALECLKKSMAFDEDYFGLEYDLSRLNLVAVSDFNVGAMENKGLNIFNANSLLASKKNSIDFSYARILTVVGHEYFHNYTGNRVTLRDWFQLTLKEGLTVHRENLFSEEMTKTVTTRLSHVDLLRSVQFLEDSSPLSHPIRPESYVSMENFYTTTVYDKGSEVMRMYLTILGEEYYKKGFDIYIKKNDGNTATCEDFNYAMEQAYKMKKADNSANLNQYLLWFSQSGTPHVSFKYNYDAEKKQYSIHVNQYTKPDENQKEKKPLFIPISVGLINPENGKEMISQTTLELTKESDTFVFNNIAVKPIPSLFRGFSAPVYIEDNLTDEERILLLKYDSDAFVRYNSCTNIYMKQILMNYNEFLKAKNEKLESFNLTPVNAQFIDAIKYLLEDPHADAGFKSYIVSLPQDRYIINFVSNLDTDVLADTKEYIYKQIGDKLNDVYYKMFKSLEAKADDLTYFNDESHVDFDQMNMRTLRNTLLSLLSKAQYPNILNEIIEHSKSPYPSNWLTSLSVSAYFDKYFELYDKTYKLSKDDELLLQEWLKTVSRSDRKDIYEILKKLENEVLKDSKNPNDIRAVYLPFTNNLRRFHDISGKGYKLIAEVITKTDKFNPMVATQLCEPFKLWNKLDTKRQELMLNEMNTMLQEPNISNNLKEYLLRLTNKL

Prothrombin = Prothrombin (Bos taurus, UniProt P00735); experiment: thrombin protease inhibitors – biochemical, fluorescence polarization, uHTS hits, dose response (AID 602369); format: functional
[20] = target: 26S proteasome non-ATPase regulatory subunit 14 (Homo sapiens, UniProt O00487); experiment: inhibition of proteasome subunit RPN11 – biochemical, fluorescence polarization, uHTS hits, confirmation (AID 602368); format: functional
26S proteasome non-ATPase regulatory subunit 14, sequence (O00487 whole entry): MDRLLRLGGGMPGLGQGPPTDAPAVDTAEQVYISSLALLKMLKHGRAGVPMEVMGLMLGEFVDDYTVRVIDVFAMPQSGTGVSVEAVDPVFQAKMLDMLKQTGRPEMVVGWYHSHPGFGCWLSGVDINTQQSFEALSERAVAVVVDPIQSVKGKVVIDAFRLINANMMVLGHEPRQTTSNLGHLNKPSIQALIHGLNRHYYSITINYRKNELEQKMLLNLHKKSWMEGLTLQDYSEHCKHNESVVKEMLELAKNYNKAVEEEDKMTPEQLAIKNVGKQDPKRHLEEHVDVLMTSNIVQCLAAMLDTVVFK

Cytochrome P450 2D6 = Cytochrome P450 2D6 (Homo sapiens, UniProt P10635);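 note: CYP2D6 member of a cytochrome P450 panel assay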
Cytochrome P450 2D6, sequence (P10635 whole entry): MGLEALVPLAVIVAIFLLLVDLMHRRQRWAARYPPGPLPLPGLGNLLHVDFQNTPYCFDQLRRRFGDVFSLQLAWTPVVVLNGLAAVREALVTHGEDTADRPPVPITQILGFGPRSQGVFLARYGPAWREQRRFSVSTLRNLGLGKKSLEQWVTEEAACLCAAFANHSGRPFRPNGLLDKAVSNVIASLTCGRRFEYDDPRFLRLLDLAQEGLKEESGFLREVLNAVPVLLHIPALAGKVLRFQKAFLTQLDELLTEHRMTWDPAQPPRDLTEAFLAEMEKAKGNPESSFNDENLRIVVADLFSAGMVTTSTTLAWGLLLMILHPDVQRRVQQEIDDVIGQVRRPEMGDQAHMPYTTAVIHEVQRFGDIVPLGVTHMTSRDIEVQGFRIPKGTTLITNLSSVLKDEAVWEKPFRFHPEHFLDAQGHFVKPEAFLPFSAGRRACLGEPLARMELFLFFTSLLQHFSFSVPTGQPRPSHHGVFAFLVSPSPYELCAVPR

[21] = target: 72 kDa type IV collagenase (Homo sapiens, UniProt P08253); experiment: Dose Response validation of uHTS RPN11 inhibitor hits using a MMP-2 Fluorescence assay.; format: functional
72 kDa type IV collagenase, sequence (P08253 whole entry): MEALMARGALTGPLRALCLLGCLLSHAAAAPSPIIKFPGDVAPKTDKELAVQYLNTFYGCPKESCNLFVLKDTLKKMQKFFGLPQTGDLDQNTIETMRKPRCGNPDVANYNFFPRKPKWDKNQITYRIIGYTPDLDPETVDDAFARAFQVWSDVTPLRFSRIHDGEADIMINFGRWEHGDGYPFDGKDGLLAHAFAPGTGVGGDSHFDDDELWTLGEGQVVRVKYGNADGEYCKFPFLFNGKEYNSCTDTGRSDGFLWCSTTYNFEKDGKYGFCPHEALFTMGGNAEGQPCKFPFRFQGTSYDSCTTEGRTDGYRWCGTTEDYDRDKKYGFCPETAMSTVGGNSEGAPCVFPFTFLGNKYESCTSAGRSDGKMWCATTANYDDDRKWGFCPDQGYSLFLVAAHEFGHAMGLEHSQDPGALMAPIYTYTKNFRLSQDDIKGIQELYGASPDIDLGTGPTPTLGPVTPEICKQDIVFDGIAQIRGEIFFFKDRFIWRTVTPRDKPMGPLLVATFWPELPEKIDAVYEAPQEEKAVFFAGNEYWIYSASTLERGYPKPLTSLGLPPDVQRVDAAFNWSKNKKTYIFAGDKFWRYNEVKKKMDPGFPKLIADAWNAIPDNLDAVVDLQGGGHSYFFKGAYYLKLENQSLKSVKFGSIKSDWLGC

Fatty acid synthase [22] = target: T6, Fatty acid synthase (Homo sapiens, UniProt P49327); experiment: inhibition of human FAS-TE enzyme activity – biochemical, endpoint fluorescence intensity, uHTS hits, dose response (AID 624327); format: functional;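 note: fluorescence from hydrolysis of an O-methyl fluorescein acyl ester substrate by the enzyme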
T6 sequence (P49327 whole entry): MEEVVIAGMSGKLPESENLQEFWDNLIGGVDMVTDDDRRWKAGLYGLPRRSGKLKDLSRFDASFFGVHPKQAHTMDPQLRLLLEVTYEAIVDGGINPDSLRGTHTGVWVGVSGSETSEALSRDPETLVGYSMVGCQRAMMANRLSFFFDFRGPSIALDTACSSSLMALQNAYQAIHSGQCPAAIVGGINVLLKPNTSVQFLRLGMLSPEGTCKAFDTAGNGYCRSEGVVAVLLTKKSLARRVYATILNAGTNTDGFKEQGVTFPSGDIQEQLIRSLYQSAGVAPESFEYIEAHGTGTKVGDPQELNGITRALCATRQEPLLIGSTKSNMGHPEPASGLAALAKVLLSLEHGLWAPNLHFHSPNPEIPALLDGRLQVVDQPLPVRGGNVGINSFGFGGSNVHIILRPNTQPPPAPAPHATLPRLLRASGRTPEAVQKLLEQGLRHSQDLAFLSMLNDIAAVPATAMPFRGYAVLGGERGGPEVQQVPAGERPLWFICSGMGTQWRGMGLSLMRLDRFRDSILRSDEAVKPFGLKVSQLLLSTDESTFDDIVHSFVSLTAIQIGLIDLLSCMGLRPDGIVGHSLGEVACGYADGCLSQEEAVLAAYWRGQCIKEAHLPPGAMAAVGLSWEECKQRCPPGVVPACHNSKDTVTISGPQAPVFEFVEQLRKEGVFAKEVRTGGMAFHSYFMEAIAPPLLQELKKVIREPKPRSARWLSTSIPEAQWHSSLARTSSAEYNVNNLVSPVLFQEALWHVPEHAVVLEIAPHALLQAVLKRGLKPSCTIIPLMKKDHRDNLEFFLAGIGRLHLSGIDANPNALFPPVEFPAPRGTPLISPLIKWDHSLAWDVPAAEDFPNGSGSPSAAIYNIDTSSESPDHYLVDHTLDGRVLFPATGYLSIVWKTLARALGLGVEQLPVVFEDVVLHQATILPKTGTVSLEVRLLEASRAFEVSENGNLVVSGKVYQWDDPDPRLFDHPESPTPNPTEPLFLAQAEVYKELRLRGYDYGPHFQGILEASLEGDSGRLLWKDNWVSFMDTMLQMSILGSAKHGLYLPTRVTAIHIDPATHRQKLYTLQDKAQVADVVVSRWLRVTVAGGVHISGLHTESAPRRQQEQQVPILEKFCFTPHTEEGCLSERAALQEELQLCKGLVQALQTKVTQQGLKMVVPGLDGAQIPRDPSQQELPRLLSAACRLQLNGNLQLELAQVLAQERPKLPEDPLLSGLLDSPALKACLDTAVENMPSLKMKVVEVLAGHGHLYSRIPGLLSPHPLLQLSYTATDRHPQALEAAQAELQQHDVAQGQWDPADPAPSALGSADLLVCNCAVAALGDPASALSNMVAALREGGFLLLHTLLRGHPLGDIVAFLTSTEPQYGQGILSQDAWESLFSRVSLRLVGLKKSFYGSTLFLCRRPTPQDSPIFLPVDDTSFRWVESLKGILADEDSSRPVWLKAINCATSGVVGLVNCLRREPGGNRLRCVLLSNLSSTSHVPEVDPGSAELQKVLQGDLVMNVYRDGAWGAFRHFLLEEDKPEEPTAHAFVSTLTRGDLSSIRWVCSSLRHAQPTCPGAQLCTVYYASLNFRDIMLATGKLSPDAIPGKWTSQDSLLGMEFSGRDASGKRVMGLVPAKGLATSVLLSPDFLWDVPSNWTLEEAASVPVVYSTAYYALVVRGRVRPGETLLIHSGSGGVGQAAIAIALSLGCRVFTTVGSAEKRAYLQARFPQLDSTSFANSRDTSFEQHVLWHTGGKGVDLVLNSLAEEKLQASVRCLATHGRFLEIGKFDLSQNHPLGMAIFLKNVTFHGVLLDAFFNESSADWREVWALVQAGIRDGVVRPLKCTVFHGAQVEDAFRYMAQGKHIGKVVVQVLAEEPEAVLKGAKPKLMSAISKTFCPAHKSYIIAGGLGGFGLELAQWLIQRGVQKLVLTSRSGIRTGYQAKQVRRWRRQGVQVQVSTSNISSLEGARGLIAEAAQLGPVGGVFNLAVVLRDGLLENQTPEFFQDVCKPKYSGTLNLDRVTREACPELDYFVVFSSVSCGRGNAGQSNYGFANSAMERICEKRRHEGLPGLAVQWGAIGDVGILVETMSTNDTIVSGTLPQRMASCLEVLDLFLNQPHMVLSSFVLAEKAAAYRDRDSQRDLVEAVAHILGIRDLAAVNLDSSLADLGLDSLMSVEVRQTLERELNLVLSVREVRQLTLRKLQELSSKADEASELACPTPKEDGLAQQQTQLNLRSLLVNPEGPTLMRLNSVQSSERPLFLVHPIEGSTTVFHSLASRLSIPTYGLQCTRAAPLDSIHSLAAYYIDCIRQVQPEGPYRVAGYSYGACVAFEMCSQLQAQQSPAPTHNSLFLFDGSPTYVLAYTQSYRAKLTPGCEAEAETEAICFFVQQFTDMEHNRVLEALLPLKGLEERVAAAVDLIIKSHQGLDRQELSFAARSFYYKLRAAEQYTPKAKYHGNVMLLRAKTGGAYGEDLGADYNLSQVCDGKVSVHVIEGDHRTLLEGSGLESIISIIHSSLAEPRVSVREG

[23] = target: Multidrug resistance protein CDR1 (Candida albicans, UniProt P43071); experiment: inhibition of Nile Red efflux via Candida CDR1 – S. cerevisiae AD1-8u, singleplex, Cherry Pick1 hits, dose response (AID 588606); format: functional
Fatty acid synthase [24] = target: T6, Fatty acid synthase; experiment: inhibition of human FAS-TE enzyme activity – biochemical, kinetic fluorescence intensity, dose response (AID 624326); format: functional;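 note: rate of fluorescence rise from hydrolysis of a fluorogenic O-methyl fluorescein ester substrate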
[25] = target: T7, Neuropeptides B/W receptor type 1 (Homo sapiens, UniProt P48145); experiment: human NPBW1 receptor blockade, IC50 – cell-based, fluorescence, dose response, set 6, late-stage follow-up (AID 588583); format: functional
T7 sequence (P48145 whole entry): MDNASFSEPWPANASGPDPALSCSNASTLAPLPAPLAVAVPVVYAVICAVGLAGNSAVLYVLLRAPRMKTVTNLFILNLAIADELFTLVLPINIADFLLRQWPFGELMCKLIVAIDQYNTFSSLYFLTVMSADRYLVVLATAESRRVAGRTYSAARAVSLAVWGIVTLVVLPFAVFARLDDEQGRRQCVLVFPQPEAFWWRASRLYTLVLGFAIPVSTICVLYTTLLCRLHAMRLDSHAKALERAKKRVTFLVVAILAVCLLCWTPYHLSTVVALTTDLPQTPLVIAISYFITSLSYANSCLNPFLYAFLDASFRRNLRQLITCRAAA

[26] = target: Melanin-concentrating hormone receptor 1 (Homo sapiens, UniProt Q99705); experiment: Late-stage fluorescence-based counterscreen for antagonists of the G-protein coupled receptor 7 (GPR7): cell-based dose response assay to identify antagonists of the melanin-concentrating hormone receptor 1 (MCHR1) Set 6.; format: functional

c1ccc2nc(-c3nc4ccccc4o3)ccc2c1
IC50 (Protein skinhead-1): 9.69 µM (active) | EC50 [1]: > 67.5 µM (inactive) | IC50 (CHO-K1): > 66.2 µM (inactive) | IC50 [2]: > 49.8 µM (inactive) | AC50 [3]: 3.53 µM (active) | CC50 [4]: > 40 µM (active) | EC50 [5]: 1.36 µM (active) | EC50 (BJ [6]): 10.5 µM (active) | EC50 [7]: 4.38 µM (active) | AC50 [8]: > 52 µM (inactive) | IC50 [9]: 5.46 µM (active) | EC50 (BJ [10]): > 133 µM (inactive) | EC50 (cells): > 67.5 µM (inactive) | IC50 (Orexin receptor type 2 [11]): 41.7 µM (inactive) | AC50 [12]: 2.72 µM (active) | IC50 (Orexin receptor type 2 [13]): 0.006 µM (active) | EC50 (BJ [14]): 8.74 µM (active) | IC50 [15]: 0.954 µM (active) | AC50 [16]: 11.1 µM (active) | AC50 [17]: 22.5 µM (active) | EC50 (BJ [18]): > 150 µM (inconclusive) | EC50 [19]: 7.36 µM (active)

N#Cc1c(O)nc(SCC(=O)c2cccs2)nc1-c1cccs1
IC50 (Aminopeptidase N): 24.1 µM (active) | IC50 (Prothrombin): 47.8 µM (active) | IC50 [20]: 37.2 µM (active) | AC50 (Cytochrome P450 2D6): inconclusive | IC50 [21]: > 100 µM (inactive)

COc1ccc(NC(=O)Nc2cccc3c2O[C@H](CN(C)C(=O)NC2CCCCC2)[C@@H](C)CN([C@H](C)CO)C3=O)cc1
IC50 (Fatty acid synthase [22]): 3.56 µM (active) | EC50 [23]: 8.86 µM (active) | IC50 (Fatty acid synthase [24]): 3.35 µM (active)

N#CC(c1ccccc1)c1c(Cl)cnn(C2c3ccccc3-c3ccccc32)c1=O (configuration not stated)
IC50 [25]: 2.22 µM (active) | IC50 [26]: 2.22 µM (active)
